Experimental data: patent publication US7226937B2, “Methods for modulating phototoxicity” (Board of Regents on Behalf of the University of Arizona, priority 2002, dated 2007)

Tests used:
human CF3 fibroblasts = test: Proliferation inhibition of CF3 fibroblasts with or without solar simulated light; type: cell-based; conditions: 500 μM compound, no light or SSL (2.3 J/cm^2 UVA, 0.12 J/cm^2 UVB), 3 days after stimulation
Experimental: (§1) A series of experiments were carried out on HaCaT keratinocytes, and human CF3 fibroblasts. In these experiments, cell samples were contacted with 500 μM of pyridinoline, 500 μM of desmosine, which is an elastin constituent with a structure related to pyridinoline, or 500 μM of vitamin B6 (pyridoxine). Controls received no added compound. In one set of experiments, the cells received no external light source. In another set of experiments, they received UVA light, at 3.3 J/cm^2. The CF3 fibroblasts received solar simulated light, or “SSL,” which combines 2.3 J/cm^2 of UVA light, and 0.12 J/cm^2 of UVB light. Results are shown, in FIG. 2, in terms of percent of cell proliferation relative to a control (no added compound, no light). The measurements were taken 3 days after stimulation.

HaCaT keratinocytes = test: Proliferation inhibition of HaCaT keratinocytes with or without light; type: cell-based; conditions: for cell proliferation relative to a control (antiproliferative effect): 500 μM compound, HaCaT keratinocytes, no light or UVA 3.3 J/cm^2, 3 days after stimulation
Experimental: as §1
HaCaT cells, as described supra, were tested in a proliferation inhibition assay. Cell samples received equal amounts of one of the 4 compounds listed supra and were contacted with or without either solar simulated light (“SSL”) as described, supra, or UVA light alone, also as described supra.
The antiproliferative effect of the complexes described in example 4 were tested, by adding either nothing (control), BSA, or the BSA-B6 complexes, and treating or not treating samples of HaCaT keratinocytes with SSL. The BSA and BSA-B6 were added at 10 mg/ml, and the SSL was 2.3 J/cm^2 of UVA plus 0.12 J/cm^2 UVB. Three days after treatment, proliferation was measured using a Coulter counter, and standard methods.

ΦX174 plasmid = test: Suppression of AGE-sensitized DNA (plasmid) cleavage; type: biochemical; conditions: for suppression of AGE-sensitized plasmid cleavage, in words: as in Table 1
Description: It is well known that ΦX174 plasmid is cleaved only by combined action of irradiation from solar simulated light, and AGE-pigment enriched protein, which acts as a UV sensitizer. AGE-BSA (“advanced glycation end product” modified bovine serum albumin), is a model for accumulation of endogenous skin sensitizers of the type described supra. Details of the assay showing this will be found in Wondrak, et al., Photochem. Photobiol. […] This assay was used in this example.
Plasmid cleavage was visualized by running samples on 1% agarose gels, and damage, i.e., formation of relaxed, open circular forms from closed circular forms (undamaged) were quantified via densitometry, which permitted assessment of the protective effect of a compound.
AGE-cleavage proceeds in the absence of oxygen, and cannot be suppressed fully via antioxidants. As such, if a compound suppresses plasmid cleavage it cannot be simply considered an antioxidant. In contrast, inhibition via quenching of the excited state, as described supra, must be presumed.
Using this assay, a series of proline related compounds and proline were tested. The structures of the compounds are set forth at FIG. 10. FIG. 11, sets forth the results of these experiments. […]

[1] = system: skin fibroblasts (CF3 cells); test: Cell protection against sensitized photodamage (TB plus visible light); type: cell-based, human; conditions: test compound 10 mM, TB 3.3 μM, visible light 10.8 J/cm^2; for protective effect against sensitized photodamage, in words: CF3 fibroblasts; for Cell Protection against Sensitized Photodamage: ± SD, n = 3, CF3 fibroblasts counted after 3 days
Experimental: Cultured skin fibroblasts (CF3 cells) were exposed to photooxidative stress from ^1O2 which had formed, in situ, by dye sensitization.
In brief, 50,000 fibroblasts were seeded in a 35 mm culture dish, and then treated one day later with visible light (90 seconds exposure, providing 10.8 J/cm^2) in the presence or absence of TB (3.3 μM in Hanks buffered salt solution). Five minutes after treatment, cells were washed, with phosphate buffered saline. Test compound (10 mM) was present or absent in the culture during the radiation. After 3 days of cultivation, cells were harvested via trypsinization, and counted using a Coulter counter.
Protection was determined via the formula: […]

[2] = mixture of TB and L-Pro in PBS; visible light 36 J/cm^2

N[C@@H](CC[C@@H](O)C[n+]1cc(O)c(C[C@H](N)C(=O)O)c(CC[C@H](N)C(=O)O)c1)C(=O)[O-] [pyridinoline]
cell proliferation relative to a control (antiproliferative effect) (human CF3 fibroblasts): antiproliferative effect, but only in the presence of light | cell proliferation relative to a control (antiproliferative effect) (HaCaT keratinocytes): antiproliferative effect, but only in the presence of light

CC(C)(S)[C@@H](N)C(=O)O [D-Penicillamine, D-penicillamine]
% Inhibition (±SD) of AGE-sensitized DNA cleavage (ΦX174 plasmid; 20 mM): 95.7 ± 0.7% | suppression of AGE-sensitized plasmid cleavage, in words (ΦX174 plasmid): effective

Cc1ncc(CO)c(CO)c1O [Vitamin B6, pyridoxine]
cell proliferation relative to a control (antiproliferative effect) (human CF3 fibroblasts): dramatically more efficacy in inhibiting the cellular proliferation | cell proliferation relative to a control (antiproliferative effect) (HaCaT keratinocytes): dramatically more efficacy in inhibiting the cellular proliferation

OC[C@@H](O)[C@@H](O)[C@H](O)[C@H](O)CO [Mannitol]
% Inhibition (±SD) of AGE-sensitized DNA cleavage (ΦX174 plasmid; 20 mM): 47.5 ± 2.5%

COC(=O)[C@@H]1CC(O)CN1 (stereo partly drawn) [4-OH-L-Pro-OCH3, 4-OH-L-proline methyl ester]
protective effect against sensitized photodamage, in words [1]: very clear protective effect | Cell Protection against Sensitized Photodamage [1]: 71.0 ± 13.4%

COC(=O)[C@@H]1CCCN1 [L-Pro-OCH3]
quenching of photosensitized DNA damage (plasmid cleavage) (ΦX174 plasmid; test compound 100 mM, UVA 2.3 J/cm^2, AGE-BSA 10 mg/ml): most potent of the quenchers | protective effect against sensitized photodamage, in words [1]: very clear protective effect | Cell Protection against Sensitized Photodamage [1]: 83.8 ± 10.9%

CC(=O)N[C@@H](CS)C(=O)O [NAC, N-acetyl-L-cysteine]
% Inhibition (±SD) of AGE-sensitized DNA cleavage (ΦX174 plasmid; 20 mM): 99.4 ± 0.9% | suppression of AGE-sensitized plasmid cleavage, in words (ΦX174 plasmid): effective

[N-]=[N+]=[N-].[Na+] [NaN3]
% Inhibition (±SD) of AGE-sensitized DNA cleavage (ΦX174 plasmid; 20 mM): 94.0 ± 0.5% | suppression of AGE-sensitized plasmid cleavage, in words (ΦX174 plasmid): effective

Catalase
% Inhibition (±SD) of AGE-sensitized DNA cleavage (ΦX174 plasmid; 400 u/mL): 57.5 ± 4.7% | effect of catalase on vitamin B6 sensitization (HaCaT keratinocytes; catalase added at 400 μ/ml, cell type not stated): absolutely no effect

Oc1cccnc1 [3-hydroxypyridine]
type of light in whose presence the compound functioned (HaCaT keratinocytes; HaCaT cells, SSL or UVA alone): functioned in the presence of UVB light as a cell proliferation inhibitor | effect on HaCaT cells in proliferation inhibition assay, compared to controls (HaCaT keratinocytes; equal amounts of compound, with or without SSL or UVA light): inhibitory effect

N[C@@H](CCC(=O)N[C@@H](CS)C(=O)NCC(=O)O)C(=O)O [GSH, glutathione]
% Inhibition (±SD) of AGE-sensitized DNA cleavage (ΦX174 plasmid; 20 mM): 100.0 ± 0.0% | suppression of AGE-sensitized plasmid cleavage, in words (ΦX174 plasmid): effective

CC(=O)N(O)CCCCCNC(=O)CCC(=O)N(O)CCCCCNC(=O)CCC(=O)N(O)CCCCCN [DFO]
% Inhibition (±SD) of AGE-sensitized DNA cleavage (ΦX174 plasmid; 1 mM): 51.3 ± 1.0%

N[C@@H](Cc1c[nH]cn1)C(=O)O [L-Histidine]
% Inhibition (±SD) of AGE-sensitized DNA cleavage (ΦX174 plasmid; 20 mM): 43.7 ± 0.4%

O=C(O)[C@@H]1CCCN1 [L-Pro, proline]
Cell Protection against Sensitized Photodamage [1]: 6.2 ± 5.4% | change in HPLC peak, retention time or AUC after light exposure (inertness toward 1O2) [2]: No changes were observed

C1CN2CCN1CC2 [DABCO]
% Inhibition (±SD) of AGE-sensitized DNA cleavage (ΦX174 plasmid; 20 mM): 32.9 ± 1.1%

O=C(O)[C@@H]1CC(O)CN1 (stereo partly drawn) [4-OH-L-Pro, 4-hydroxy-L-proline]
Cell Protection against Sensitized Photodamage [1]: 7.3 ± 2.5%
